Assay [1] concerns HCT116 (colon). Description: In vitro cytotoxic activity MTT assay, HCT116. It counts as cell-based. The note with it: Homo sapiens, HCT-116; HCT116 (colon) cells, exposed for 96 hours; read-out: IC50, concentration of compound eliciting a 50% inhibition of cell proliferation. The procedure: (§1) Compounds 1-16 were screened for their in vitro cytotoxic activity utilizing a 3-(4,5-dimethyl-thiazol-2-yl)-2,5-diphenyltetrazolium bromide (MTT) assay against selected cancer human cell lines consisting of PC3 (prostate), HCT116 (colon), A375 (melanoma), H1299 (lung), MIAPaCa-2 (pancreas), HL60 (leukemia), MCF7 (breast), MDA-MB-231 (breast) (T. Mosmann, J. Immunol. Meth., 1983, 65, 55-63). The cells were cultured at 37° C. in RMPI1640 medium supplemented with 10% fetal bovine serum, 50 IU/mL penicillin, and 50 μg/mL streptomycin in a 5% CO2 incubator. All cells were sub-cultured 3 times/week by trypsinisation. Viable cells were seeded and allowed to adhere for 12 h before a test drug was added in 96-well plates at an initial density of 1.0×10^5 cells/mL. Tumor cell lines were separately exposed to various concentrations of the tested compounds followed by incubation at a temperature of 37° C. during 96 h inside a medium of fresh RMPI 1640. Cells were subsequently incubated at 37° C. using MTT at 0.5 mg/mL during 4 hours. After removal of supernatant, formazan crystals were dissolved in isopropanol and the optical density was measured at 570 nm. CX-4945 was used as a positive control.
On the technique in general: Formazan colour is commonly taken as a measure of viable cells.

Assay [2] deals with A375 (melanoma). The experiment in a line: In vitro cytotoxic activity MTT assay, A375. It counts as cell-based. The note with it: Homo sapiens, A-375; A375 (melanoma) cells, exposed for 96 hours; read-out: IC50, concentration of compound eliciting a 50% inhibition of cell proliferation. How it is done:
as §1

Assay [3] concerns PC3 (prostate). Description: In vitro cytotoxic activity MTT assay, PC3. It counts as cell-based. The following applies: Homo sapiens, Prostate cell; PC3 (prostate) cells, exposed for 96 hours; read-out: IC50, concentration of compound eliciting a 50% inhibition of cell proliferation. How it is done:
as §1

Assay [4] concerns HL60 (leukemia). Description: In vitro cytotoxic activity MTT assay, HL60. The following applies: Homo sapiens, HL-60; HL60 (leukemia) cells, exposed for 96 hours; read-out: IC50, concentration of compound eliciting a 50% inhibition of cell proliferation. Type of assay: cell-based. The procedure: as §1
For assay [5], the system named is H1299 (lung). The experiment in a line: In vitro cytotoxic activity MTT assay, H1299. Type of assay: cell-based. The following applies: Homo sapiens, NCI-H1299; H1299 (lung) cells, exposed for 96 hours; read-out: IC50, concentration of compound eliciting a 50% inhibition of cell proliferation. The procedure: as §1
Assay [6] deals with MIAPaCa-2 (pancreas). Description: In vitro cytotoxic activity MTT assay, MIAPaCa-2. Type of assay: cell-based. The following applies: Homo sapiens, MIA PaCa-2; MIAPaCa-2 (pancreas) cells, exposed for 96 hours; read-out: IC50, concentration of compound eliciting a 50% inhibition of cell proliferation. The procedure: as §1
Assay [7] concerns MCF7 (breast). The experiment in a line: In vitro cytotoxic activity MTT assay, MCF7. It counts as cell-based. The following applies: Homo sapiens; MCF7 (breast) cells, exposed for 96 hours; read-out: IC50, concentration of compound eliciting a 50% inhibition of cell proliferation. The procedure:
as §1

Assay [8] has as its system MDA-MB-231 (breast). Description: In vitro cytotoxic activity MTT assay, MDA-MB-231. It counts as cell-based. The note with it: Homo sapiens; MDA-MB-231 (breast) cells, exposed for 96 hours; read-out: IC50, concentration of compound eliciting a 50% inhibition of cell proliferation. The procedure:
as §1

The target in assay [9] is T1, recombinant human CK2 (Homo sapiens, UniProt P68400).
T1 construct: purchased Millipore
T1 sequence (P68400 whole entry): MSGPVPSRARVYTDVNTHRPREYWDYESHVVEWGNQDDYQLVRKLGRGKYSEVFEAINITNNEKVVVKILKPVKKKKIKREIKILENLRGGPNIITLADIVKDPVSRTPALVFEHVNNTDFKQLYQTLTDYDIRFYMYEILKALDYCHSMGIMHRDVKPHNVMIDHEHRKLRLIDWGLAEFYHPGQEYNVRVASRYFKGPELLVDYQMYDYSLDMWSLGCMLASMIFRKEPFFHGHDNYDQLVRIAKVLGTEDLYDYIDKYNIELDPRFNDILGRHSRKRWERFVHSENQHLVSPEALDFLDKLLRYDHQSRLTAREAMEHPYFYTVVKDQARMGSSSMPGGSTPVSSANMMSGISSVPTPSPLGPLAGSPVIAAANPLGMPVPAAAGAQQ
T1 sequence (P67870 whole entry partner): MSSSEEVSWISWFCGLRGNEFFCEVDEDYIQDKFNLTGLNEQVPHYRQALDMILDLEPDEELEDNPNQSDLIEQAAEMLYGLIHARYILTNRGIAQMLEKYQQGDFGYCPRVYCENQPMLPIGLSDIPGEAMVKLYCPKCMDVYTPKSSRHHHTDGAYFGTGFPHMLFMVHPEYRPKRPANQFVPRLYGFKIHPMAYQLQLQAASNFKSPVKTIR
Description: CK2 Kinase Assay (radiometric, 33P-ATP). It counts as biochemical. The following applies: final ATP concentration 15 μM, 10 min at 30° C., eight concentrations; read-out: protein kinase CK2 IC50. The procedure: CK2 Kinase Assay was conducted using the protocol as described in Pierre F. et al; J. Med. Chem. 2011, 54, 635-654. The tested compounds in aqueous solution were added at a volume of 10 μL to a reaction mixture comprising 10 μL of assay dilution buffer (ADB; 20 mM MOPS, pH 7.2, 25 mM β-glycerol phosphate, 5 mM EGTA, 1 mM sodium orthovanadate, and 1 mM dithiothreitol), 10 μL of substrate peptide (RRRDDDSDDD, dissolved in ADB at a concentration of 1 mM), 10 μL of recombinant human CK2 (RROP-holoenzyme, 25 ng dissolved in ADB; Millipore). Reactions were initiated by the addition of 10 μL of ATP solution (90% 75 mMMgCl2, 75 μM ATP (final ATP concentration:15 μM) dissolved in ADB; 10% [γ-33P] ATP (stock 1 mCi/100 μL; 3000 Ci/mmol (Perkin-Elmer) and maintained for 10 min at 30° C. The reactions were quenched with 100 μL of 0.75% phosphoric acid and then transferred to and filtered through a phosphor cellulose filter plate (Millipore). After washing each well five times with 0.75% phosphoric acid, the plate was dried under vacuum for 5 min and, following the addition of 15 μL of scintillation fluid to each well, the residual radioactivity was measured using a Wallac luminescence counter. The IC50 values were derived from eight concentrations of test inhibitors.

On to `O=C(O)c1ccc2[nH]c3ncnc(Nc4cccc(Cl)c4)c3c2c1` [Example 1, 4-((3-chlorophenyl)amino)-9H-pyrimido[4,5-b]indole-6-carboxylic acid], for which the IC50 was 1.8 µM in assay [1]; 3.3 µM in assay [2]; 1.4 µM in [3]; 3 µM in [4]; 4.5 µM in [5]; 0.9 µM in assay [6]. Further, the IC50 stood at 4.6 µM in assay [7], 2.9 µM in assay [8] and 0.068 µM in [9].

The values are drawn from patent US11964981B1, “Substituted pyrimido[4,5-b]indoles as CK2 inhibitors” (KING FAISAL UNIVERSITY, priority 2023, dated 2024).
